This note sets out measurements from patent publication US11273168B2, “Methods of treating anxiety by administering a substituted quinolone” (OTSUKA PHARMACEUTICAL CO., LTD., priority 2010, dated 2022).

Structures can show the parent of a compound that is named as a salt.

Holding throughout (type): biochemical
Test [1] concerns the target Norepinephrine (NE) uptake (Rattus norvegicus, UniProt Q9WTR4). The test can be described thus: Norepinephrine (NE) uptake inhibitory activity using rat brain synaptosome (hippocampus). The note with it: tritium-labeled NE 12 nM, 37° C. ten minutes, read-out: 50% inhibitory concentration. As to the method: Measurement of Norepinephrine (NE) Uptake Inhibitory Activity of Test Compound Using Rat Brain Synaptosome
Male Wistar rats were decapitated, and their brains were removed and dissected to remove the hippocampus. The separated hippocampus was placed in a 20-fold weight of a 0.32 molarity (M) sucrose solution and homogenized with a potter homogenizer. The homogenate was centrifuged at 1000 g at 4° C. for 10 minutes, and the supernatant was further centrifuged at 20000 g at 4° C. for 20 minutes. The pellet was suspended in an incubation buffer (20 mM HEPES buffer (pH 7.4) containing 10 mM glucose, 145 mM sodium chloride, 4.5 mM potassium chloride, 1.2 mM magnesium chloride, and 1.5 mM calcium chloride). The suspension was used as a crude synaptosome fraction.
(§1) Uptake reaction was performed using each well of a 96-well round-bottom plate and a 200 μl volume in total of a solution containing pargyline (final concentration: 10 μM) and ascorbic acid (final concentration: 0.2 mg/ml).
(§2) Specifically, a solvent, unlabeled NE, and serially diluted test compounds were separately added to the wells, and the synaptosome fraction was added in an amount 1/10 of the final volume to each well and preincubated at 37° C. for 10 minutes. Then, a tritium-labeled NE solution (final concentration: 12 nM) was added thereto to initiate uptake reaction at 37° C. Ten minutes later, the uptake reaction was terminated by suction filtration through a 96-well glass fiber filter plate. Furthermore, the filter was washed with a cold saline and then sufficiently dried. MicroScint-O (PerkinElmer Co., Ltd.) was added thereto, and the residual radioactivity on the filter was measured.
An uptake value obtained by the addition of only the solvent was defined as 100%, and an uptake value (nonspecific uptake value) obtained by the addition of the unlabeled NE (final concentration: 10 μM) was defined as 0%. A 50% inhibitory concentration was calculated from the test compound concentrations and inhibitory activities thereat.

The target in the next test is T1, Dopamine (DA) uptake (Rattus norvegicus, UniProt P23977).
T1 construct: The suspension was used as a crude synaptosome fraction; from tissue; host or cells: rat (male Wistar) corpus striatum, crude synaptosome fraction
The test can be described thus: Dopamine (DA) uptake inhibitory activity using rat brain synaptosome (corpus striatum). The note with it: tritium-labeled DA 2 nM, 37° C. ten minutes, read-out: 50% Inhibitory concentration. How it is done: Measurement of Dopamine (DA) Uptake Inhibitory Activity of Test Compound Using Rat Brain Synaptosome
Male Wistar rats were decapitated, and their brains were removed and dissected to remove the corpus striatum. The separated corpus striatum was placed in a 20-fold weight of a 0.32 molarity (M) sucrose solution and homogenized with a potter homogenizer. The homogenate was centrifuged at 1000 g at 4° C. for 10 minutes, and the supernatant was further centrifuged at 20000 g at 4° C. for 20 minutes. […] The suspension was used as a crude synaptosome fraction.
Uptake reaction was performed using each well of a 96-well round-bottom plate and a 200 μl volume in total of a solution containing pargyline (final concentration: 10 μM) and ascorbic acid (final concentration: 0.2 mg/mil).
as §2, with “DA,” for “NE,”, “DA” for “NE”, “2” for “12”
An uptake value obtained by the addition of only the solvent was defined as 100%, and an uptake value (nonspecific uptake value) obtained by the addition of the unlabeled DA (final concentration: 10 μM) was defined as 0%. A 50% inhibitory concentration was calculated from the test compound concentrations and inhibitory activities thereat.

Another test has as its target T2, Serotonin (5-HT) uptake (Rattus norvegicus, UniProt P31652).
T2 construct: The suspension was used as a crude synaptosome fraction; from tissue; host or cells: rat (male Wistar) frontal cortex, crude synaptosome fraction
The test can be described thus: Serotonin (5-HT) uptake inhibitory activity using rat brain synaptosome (frontal cortex). The note with it: tritium-labeled 5-HT 8 nM, 37° C. 10 minutes, read-out: 50% Inhibitory concentration. How it is done:
Measurement of Serotonin (5-HT) Uptake Inhibitory Activity of Test Compound Using Rat Brain Synaptosome
Male Wistar rats were decapitated, and their brains were removed and dissected to remove the frontal cortex. The separated frontal cortex was placed in a 20-fold weight of a 0.32 molarity (M) sucrose solution and homogenized with a potter homogenizer. The homogenate was centrifuged at 1000 g at 4° C. for 10 minutes, and the supernatant was further centrifuged at 20000 g at 4° C. for 20 minutes. […] The suspension was used as a crude synaptosome fraction.
as §1
as §2, with “5-HT,” for “NE,”, “5-HT” for “NE”, “8” for “12”, “10” for “Ten”
An uptake value obtained by the addition of only the solvent was defined as 100%, and an uptake value (nonspecific uptake value) obtained by the addition of the unlabeled 5-HT (final concentration: 10 μM) was defined as 0%. A 50%, inhibitory concentration was calculated from the test compound concentrations and inhibitory activities thereat.

T1 sequence (P23977 whole entry): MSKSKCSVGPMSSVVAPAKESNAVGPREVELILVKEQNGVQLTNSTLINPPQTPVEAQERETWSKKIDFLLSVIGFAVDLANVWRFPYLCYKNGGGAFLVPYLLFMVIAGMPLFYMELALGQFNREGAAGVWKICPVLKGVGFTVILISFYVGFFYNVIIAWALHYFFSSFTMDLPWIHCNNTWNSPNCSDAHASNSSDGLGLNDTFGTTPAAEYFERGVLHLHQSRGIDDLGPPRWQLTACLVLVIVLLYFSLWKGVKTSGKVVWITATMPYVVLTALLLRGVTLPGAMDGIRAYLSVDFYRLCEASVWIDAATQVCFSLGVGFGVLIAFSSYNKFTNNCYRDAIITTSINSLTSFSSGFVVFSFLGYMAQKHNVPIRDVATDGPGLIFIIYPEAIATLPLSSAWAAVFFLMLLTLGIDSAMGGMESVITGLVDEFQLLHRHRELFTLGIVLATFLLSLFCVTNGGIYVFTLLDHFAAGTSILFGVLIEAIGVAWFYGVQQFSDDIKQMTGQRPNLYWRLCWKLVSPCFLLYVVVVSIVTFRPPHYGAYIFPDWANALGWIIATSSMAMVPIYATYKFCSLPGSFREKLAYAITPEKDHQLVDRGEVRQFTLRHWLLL
T2 sequence (P31652 whole entry): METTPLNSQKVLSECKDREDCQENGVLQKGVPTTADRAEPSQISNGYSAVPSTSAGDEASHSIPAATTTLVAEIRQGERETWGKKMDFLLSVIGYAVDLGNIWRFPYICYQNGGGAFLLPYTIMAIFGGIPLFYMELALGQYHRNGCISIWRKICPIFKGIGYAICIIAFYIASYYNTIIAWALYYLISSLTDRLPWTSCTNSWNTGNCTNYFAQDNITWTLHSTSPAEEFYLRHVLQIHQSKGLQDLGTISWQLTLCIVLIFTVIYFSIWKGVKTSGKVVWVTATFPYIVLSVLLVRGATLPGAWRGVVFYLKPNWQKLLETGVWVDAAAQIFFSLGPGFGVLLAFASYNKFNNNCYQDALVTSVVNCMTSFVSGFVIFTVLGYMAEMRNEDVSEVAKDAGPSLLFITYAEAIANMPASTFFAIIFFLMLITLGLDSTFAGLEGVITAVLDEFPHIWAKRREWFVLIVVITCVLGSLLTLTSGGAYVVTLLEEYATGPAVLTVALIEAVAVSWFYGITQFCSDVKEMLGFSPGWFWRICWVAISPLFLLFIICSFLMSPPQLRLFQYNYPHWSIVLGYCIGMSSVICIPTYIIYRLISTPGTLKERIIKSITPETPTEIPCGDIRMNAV

`CC1(C)CN(c2ccnc3[nH]ccc23)[C@H]2CCCC[C@@H]2N1` [Example 586, (4aS,8aS)-3,3-dimethyl-1-(1H-pyrrolo[2,3-b]pyridin-4-yl)decahydroquinoxaline fumarate]: the results for the IC50 (in test [1]; at Dopamine (DA) uptake; on Serotonin (5-HT) uptake) were 4 nM, 93 nM and 5.2 nM, respectively.
Take `CC1(C)CN(c2cc(Cl)c3occc3c2)[C@H]2CCCC[C@@H]2N1` [Example 884]: the IC50 in test [1] is 4.8 nM; on Dopamine (DA) uptake, 52.8 nM; at Serotonin (5-HT) uptake, 7.3 nM.
As to `CC1(C)CN(c2ccc(Cl)c(Cl)c2)C2CCCC2N1` (stereo not drawn) [Example 10], the figures for the IC50 (in test [1]; at Dopamine (DA) uptake; at Serotonin (5-HT) uptake) were 8.8 nM, 64.8 nM and 6.2 nM, respectively.
The like results for `CC1(C)CN(c2ccc3sccc3c2)[C@H]2CCC[C@@H]2N1` (relative stereo) [Example 13] were, in that order, 14.3 nM, 85.4 nM and 5.1 nM.
The like results for `CC1(C)CN(c2cccc3ccsc23)[C@@H]2CCCC[C@@H]2N1` [Example 72] were, in that order, 1 nM, 47.9 nM and 2.6 nM.
`COc1ccc(N2CC3(CCC3)N[C@H]3CCCC[C@H]32)c2ccoc12` [Example 579, (4a′R,8a′S)-4′-(7-methoxybenzofuran-4-yl)octahydro-1′H-spiro[cyclobutane-1,2′-quinoxaline]]: the values for the IC50 (in test [1]; on Dopamine (DA) uptake; on Serotonin (5-HT) uptake) were 5.1 nM, 46.5 nM and 4.5 nM, respectively.
For `CC1(C)CN(c2cccc3[nH]ncc23)[C@H]2CCCC[C@H]2N1` [Example 778], the IC50 in test [1] was found to be 4.2 nM; at Dopamine (DA) uptake it was 4.9 nM; at Serotonin (5-HT) uptake, 87.5 nM.
In the case of `CC1(C)CN(c2ccc(Cl)c(Cl)c2)[C@@H]2CCCCC[C@@H]2N1` (relative stereo) [Example 346], the IC50 amounted to 8.8 nM in test [1], 7.8 nM at Dopamine (DA) uptake and 10 nM on Serotonin (5-HT) uptake.
Consider `CC1(C)CN(c2ccc3sccc3c2)C2COCC2N1` (stereo not drawn) [Example 8], for which the IC50 in test [1] amounted to 60.9 nM; at Dopamine (DA) uptake, 378 nM; on Serotonin (5-HT) uptake, 2.4 nM.
In the case of `CC1(C)CN(c2ccc(Cl)c3occc23)[C@H]2CCCC[C@@H]2N1` [Example 193], the IC50 in test [1] is 4.4 nM; on Dopamine (DA) uptake it was 5.7 nM; on Serotonin (5-HT) uptake, 3.4 nM.
The like results for `CC1(C)CN(c2ccc(Cl)c(Cl)c2)[C@H]2CCCC[C@@H]2N1` [Example 246] were, in that order, 3.8 nM, 8.8 nM and 6.8 nM.
In the same order, the values of `CC1(C)CN(c2ccc3ncsc3c2)[C@H]2CCCC[C@@H]2N1` (racemic) [Example 405] are 4.4 nM, 74.8 nM and 6.4 nM.
The like results for `Cn1c(C#N)cc2cc(N3CC(C)(C)N[C@@H]4CCCC[C@@H]43)ccc21` [Example 150, 5-((4aR,8aS)-3,3-dimethyldecahydroquinoxalin-1-yl)-1-methyl-1H-indole-2-carbonitrile] were, in that order, 23.6 nM, 200 nM and 5.4 nM.
With `C[C@@H]1CN(c2ccc(F)c3ccccc23)[C@H]2CCCC[C@@H]2N1` [Example 1318], the values for the IC50 (in test [1]; on Dopamine (DA) uptake; at Serotonin (5-HT) uptake) were 6.6 nM, 83.5 nM and 40.7 nM, respectively.
As for `CC1(C)CN(c2ccc(OC(F)F)c(Cl)c2)[C@@H]2CCCC[C@H]2N1` [Example 1026], the IC50 is 4.2 nM in test [1], 12.3 nM at Dopamine (DA) uptake and 2.4 nM on Serotonin (5-HT) uptake.
For the compound `CC1(C)CN(c2ccc(F)c3[nH]ccc23)[C@H]2CCCC[C@@H]2N1` [Example 895], the IC50 was 3 nM in test [1], 19.9 nM on Dopamine (DA) uptake and 5.4 nM at Serotonin (5-HT) uptake.
As to `CC1(C)CN(c2ccc(OC(F)F)c(F)c2)[C@H]2CCCC[C@@H]2N1` [Example 587, (4aS,8aS)-1-(4-(difluoromethoxy)-3-fluorophenyl)-3,3-dimethyldecahydroquinoxaline dihydrochloride], the values for the IC50 (in test [1]; on Dopamine (DA) uptake; on Serotonin (5-HT) uptake) were 1.9 nM, 76.1 nM and 0.9 nM, respectively.
Turning to `CC1(C)CN(c2cccc3ccsc23)[C@H]2CCCC[C@H]2N1` [Example 130], the IC50 amounted to 0.5 nM in test [1], 3.9 nM on Dopamine (DA) uptake and 5.3 nM at Serotonin (5-HT) uptake.
Take `CC1(C)CN(c2ccc3cc(O)ccc3c2)[C@H]2CCCC[C@@H]2N1` [Example 850]: the IC50 in test [1] amounted to 1 nM; on Dopamine (DA) uptake, 7 nM; on Serotonin (5-HT) uptake, 7.3 nM.
Turning to `CC1(C)CN(c2ccc3[nH]c(C#N)cc3c2)[C@@H]2CCCC[C@@H]2N1` [Example 654], the IC50 in test [1] stood at 1 nM; at Dopamine (DA) uptake, 9 nM; at Serotonin (5-HT) uptake, 1.5 nM.
For the compound `C[C@@H]1CN(c2ccc(F)c3occc23)[C@H]2CCCC[C@@H]2N1` [Example 1124], the IC50 stood at 0.8 nM in test [1], 49.3 nM on Dopamine (DA) uptake and 7.1 nM on Serotonin (5-HT) uptake.
The like results for `CC1(C)CN(c2csc3ccccc23)[C@@H]2CCCC[C@@H]2N1` [Example 577] were, in that order, 5.9 nM, 47.9 nM and 5.2 nM.
Take `CC1(C)CN(c2ccc3[nH]c(C#N)cc3c2)[C@H]2CCCC[C@@H]2N1` [Example 582, (4aS,8aS)-1-(2-cyano-1H-indol-5-yl) 3,3-dimethyldecahydroquinoxaline]: the figures for the IC50 (in test [1]; at Dopamine (DA) uptake; on Serotonin (5-HT) uptake) were 6 nM, 68.8 nM and 4.1 nM, respectively.
For `CN1[C@@H]2CCCC[C@H]2N(c2ccc(Cl)c(Cl)c2)CC1(C)C` [Example 273], the IC50 came to 6.8 nM in test [1], 8.7 nM at Dopamine (DA) uptake and 44 nM on Serotonin (5-HT) uptake.
For the compound `CC1(C)CN(c2ccc(O)c(Cl)c2)[C@H]2CCCC[C@@H]2N1` [Example 918], the results for the IC50 (in test [1]; on Dopamine (DA) uptake; at Serotonin (5-HT) uptake) were 0.8 nM, 42 nM and 10 nM, respectively.
Regarding `COc1cc2ccc(N3CC(C)(C)N[C@@H]4CCCC[C@H]43)cc2cc1C#N` [Example 962], the IC50 came to 31.9 nM in test [1], 69.5 nM at Dopamine (DA) uptake and 18.7 nM at Serotonin (5-HT) uptake.
In the same order, the values of `C[C@@H]1CN(c2ccc3ccc(C#N)cc3c2)[C@H]2CCCC[C@@H]2N1` [Example 1341] are 42.7 nM, 113 nM and 6.8 nM.
The like results for `Clc1ccc(N2CCN[C@H]3CCCC[C@@H]32)c2ccoc12` [Example 1083] were, in that order, 2.5 nM, 53.7 nM and 5.1 nM.
